Data set [1] can be described thus: PSA peptide solubility testing (turbidity). The following applies: for Solubility, peptides tested individually: pH 4 or pH 5 with succinate (10 mM) or glutamate (10 mM).
Data set [2] has as its system CD3 T-cells co-cultured with autologous LCs. The data set is described as follows: T-cell proliferation induced by treated LCs, alamarBlue. In kind it is cell-based, human.

Consider 5 molecules from patent US20180028627A1, “TREATMENT VACCINE FOR PROSTATE CANCER” (Bioventures, LLC, priority 2015, published 2018).

≈ marks a conversion by molar mass, not a printed value. Residues, ends and D or L forms follow the SMILES beside them.

Regarding `CC[C@H](C)[C@H](NC(=O)[C@H](Cc1c[nH]c2ccccc12)NC(=O)[C@@H](NC(=O)[C@@H](NC(=O)[C@H](CO)NC(=O)[C@H](CC(C)C)NC(=O)[C@@H](NC(=O)[C@H](CC(C)C)NC(=O)[C@H](Cc1ccccc1)NC(=O)[C@@H](NC(=O)[C@@H](NC(=O)[C@@H]1CCCN1C(=O)[C@@H](NC(=O)[C@H](Cc1c[nH]c2ccccc12)NC(=O)[C@H](CCSC)NC(C)=O)C(C)C)C(C)C)C(C)C)[C@@H](C)O)C(C)C)[C@@H](C)O)C(=O)NCC(=O)N[C@@H](C)C(=O)N[C@@H](C)C(=O)N1CCC[C@H]1C(=O)N[C@@H](CC(C)C)C(=O)N[C@H](C(=O)N[C@@H](CC(C)C)C(=O)N[C@@H](CO)C(=O)N[C@@H](CCCNC(=N)N)C(=O)N[C@H](C(=O)N[C@H](C(=O)NCC(=O)NCC(=O)N[C@@H](Cc1c[nH]c2ccccc12)C(=O)N[C@@H](CCC(=O)O)C(=O)N[C@@H](CS)C(=O)N[C@@H](CCC(=O)O)C(=O)N[C@@H](CCCCN)C(=O)N[C@@H](Cc1c[nH]cn1)C(=O)N[C@@H](CO)C(=O)N[C@@H](CCC(N)=O)C(=O)N1CCC[C@H]1C(=O)N[C@@H](Cc1c[nH]c2ccccc12)C(=O)N[C@@H](CCC(N)=O)C(=O)N[C@H](C(N)=O)C(C)C)C(C)C)[C@@H](C)CC)[C@@H](C)CC` [PSA 1-40, MWVPVVFLTLSVTWIGAAPLILSRIVGGWECEKHSQPWQV] (Ac-MWVPVVFLTLSVTWIGAAPLILSRIVGGWECEKHSQPWQV-NH2; N-terminus and C-terminus assumed), the Solubility result in data set [1] (after dilution from 20 mg/ml to 5 mg/ml, 10 mM succinate, pH5.0 with 5% glycine) was “remained insoluble”; in data set [1] (at 20 mg/ml in 10 mM succinate, pH5.0 with 5% glycine), “insoluble”; in data set [1] (in the presence of other PSA peptides) it was “solubility was enhanced”; in data set [1] (pH 5) it was 5500 µg/mL (≈ 1200 µM). For the same molecule, in data set [1], the “Solubility, peptides tested individually” value is on record as “All except PSA 1-40 were soluble in both buffers”.
For the molecule `CC[C@H](C)[C@H](NC(=O)[C@H](CS)NC(=O)[C@H](Cc1c[nH]cn1)NC(=O)[C@H](C)NC(=O)[C@H](C)NC(=O)[C@@H](NC(=O)[C@H](CC(C)C)NC(=O)[C@@H](NC(=O)[C@H](Cc1c[nH]c2ccccc12)NC(=O)[C@H](CCC(N)=O)NC(=O)[C@@H]1CCCN1C(=O)[C@H](Cc1c[nH]cn1)NC(=O)[C@@H](NC(=O)[C@H](CC(C)C)NC(=O)[C@@H](NC(=O)CNC(=O)CNC(=O)[C@H](CS)NC(=O)[C@@H](NC(=O)[C@H](C)NC(=O)[C@H](CCCNC(=N)N)NC(=O)CNC(=O)[C@H](CCCNC(=N)N)NC(=O)[C@H](CO)NC(=O)[C@H](C)NC(=O)[C@@H](NC(=O)[C@H](CC(C)C)NC(C)=O)C(C)C)C(C)C)C(C)C)C(C)C)C(C)C)[C@@H](C)O)C(=O)N[C@@H](CCCNC(=N)N)C(=O)N[C@@H](CC(N)=O)C(=O)N[C@@H](CCCCN)C(=O)N[C@@H](CO)C(=O)N[C@H](C(=O)N[C@H](C(=O)N[C@@H](CC(C)C)C(=O)N[C@@H](CC(C)C)C(=O)NCC(=O)N[C@@H](CCCNC(=N)N)C(=O)N[C@@H](Cc1c[nH]cn1)C(=O)N[C@@H](CO)C(=O)N[C@@H](CC(C)C)C(N)=O)[C@@H](C)CC)C(C)C` [PSA 41-80, LVASRGRAVCGGVLVHPQWVLTAAHCIRNKSVILLGRHSL] (Ac-LVASRGRAVCGGVLVHPQWVLTAAHCIRNKSVILLGRHSL-NH2; N-terminus and C-terminus assumed), the “Solubility, peptides tested individually” value in data set [1] is reported as “soluble in both buffers”.
On to `CSCC[C@H](NC(=O)[C@H](CC(=O)O)NC(=O)[C@H](Cc1ccc(O)cc1)NC(=O)[C@H](CC(C)C)NC(=O)[C@@H]1CCCN1C(=O)[C@H](Cc1c[nH]cn1)NC(=O)[C@@H]1CCCN1C(=O)[C@H](Cc1ccccc1)NC(=O)[C@H](CO)NC(=O)[C@H](Cc1c[nH]cn1)NC(=O)[C@H](CO)NC(=O)[C@@H](NC(=O)[C@H](CCC(N)=O)NC(=O)[C@H](Cc1ccccc1)NC(=O)[C@@H](NC(=O)[C@H](CCC(N)=O)NC(=O)CNC(=O)[C@@H](NC(=O)[C@H](CC(=O)O)NC(=O)[C@H](CCC(=O)O)NC(=O)[C@@H]1CCCN1C(=O)[C@H](Cc1c[nH]cn1)NC(=O)[C@H](Cc1ccccc1)NC(C)=O)[C@@H](C)O)C(C)C)C(C)C)C(=O)N[C@@H](CO)C(=O)N[C@@H](CC(C)C)C(=O)N[C@@H](CC(C)C)C(=O)N[C@@H](CCCCN)C(=O)N[C@@H](CC(N)=O)C(=O)N[C@@H](CCCNC(=N)N)C(=O)N[C@@H](Cc1ccccc1)C(=O)N[C@@H](CC(C)C)C(=O)N[C@@H](CCCNC(=N)N)C(=O)N1CCC[C@H]1C(=O)NCC(=O)N[C@@H](CC(=O)O)C(=O)N[C@@H](CC(=O)O)C(=O)N[C@@H](CO)C(=O)N[C@@H](CO)C(=O)N[C@@H](Cc1c[nH]cn1)C(=O)N[C@@H](CC(=O)O)C(N)=O` [PSA 81-120, FHPEDTGQVFQVSHSFPHPLYDMSLLKNRFLRPGDDSSHD] (Ac-FHPEDTGQVFQVSHSFPHPLYDMSLLKNRFLRPGDDSSHD-NH2; N-terminus and C-terminus assumed), for which, in data set [1], the “Solubility, peptides tested individually” value is listed as “soluble in both buffers”.
For `CC[C@H](C)[C@H](NC(=O)[C@H](Cc1c[nH]c2ccccc12)NC(=O)[C@H](CCCCN)NC(=O)[C@H](CCCNC(=N)N)NC(=O)[C@H](Cc1ccc(O)cc1)NC(=O)[C@H](Cc1c[nH]cn1)NC(=O)[C@@H](NC(=O)[C@@H](NC(=O)[C@H](CCCCN)NC(=O)[C@@H](NC(=O)[C@H](Cc1ccc(O)cc1)NC(=O)[C@H](CC(C)C)NC(=O)[C@H](CO)NC(C)=O)[C@@H](C)O)C(C)C)C(C)C)C(=O)N[C@@H](CCCCN)C(=O)N[C@@H](CC(=O)O)C(=O)N[C@H](C(=O)N[C@H](C(=O)N[C@H](C(=O)N[C@@H](C)C(=O)N[C@@H](CC(N)=O)C(=O)N1CCC[C@H]1C(N)=O)C(C)C)[C@@H](C)CC)[C@@H](C)O` [PSA 241-261, SLYTKVVHYR KWIKDTIVAN P] (Ac-SLYTKVVHYRKWIKDTIVANP-NH2; N-terminus and C-terminus assumed), in data set [1], the “Solubility, peptides tested individually” value is “soluble in both buffers”.
With tetanus toxoid, in data set [2] (over media, 7 days co-culture of T cells with autologous LCs), the T-cell proliferation entry is recorded as “no significant increase over media”. For the same molecule, the “Measurable proliferation, increased fluorescence” value in data set [2] (subjects 2 and 5) is no less than 5000.
